Values joined by “and” are separate entries in the source; they are usually repeats but may differ in a detail not shown here. Equal values may be shown once. Bridge positions count the residues as written; N and C are the ends. Square brackets hold non-standard residues; d marks the D form. Ends that are not written are not given here. 2Nal = N[C@@H](Cc1ccc2ccccc2c1)C(=O)O; d2Nal = N[C@H](Cc1ccc2ccccc2c1)C(=O)O; NF = naphthofluorescein; Dap = NC[C@H](N)C(=O)O
Tested on: HeLa cells
Assay: Cellular (cytosolic) uptake of NF-labeled peptides by flow cytometry (MFI)
Assay type: cell-based
Details: for Cellular Uptake (MFI^NF, %), cytosolic delivery efficiency of CPPs without beta-hairpin moiety: relative to CPP 1 (100%), mean ± S.D. of three independent experiments; for Cellular Uptake (MFINF, %) / Cellular entry / delivery efficiency (in words) / Cellular Uptake (MFI^NF, %) of Keap1-Nrf2 inhibitors: flow cytometry; for Cellular Uptake (MFINF, %) / Cellular Uptake (MFI^NF, %) of Keap1-Nrf2 inhibitors: relative to CPP1 (100%); for Improvement of cytosolic entry efficiency relative to BH4: D-amino acid diastereomers of BH4; for Cellular Uptake (MFI^NF, %) of β-hairpin transporters: 5 μM peptide; for Cellular Uptake (MFI^NF, %) of Keap1-Nrf2 inhibitors: NF-labeled peptide
Protocol: HeLa cells were treated with 5 μM peptide for 2 h, and their cell uptake efficiencies were determined by flow cytometry analysis. The mean fluorescence intensity (MFI) values derived from cytometry analyses reflect the amounts of peptides inside the cytosol and nucleus, whereas any NF-labeled peptide entrapped inside the acidic endosomes are invisible under the experimental conditions (Id.; Qian, Z et al. Chem. Commun. 2015, 51, 2162-2165).
The binding affinity of BH23 (unlabeled) for the Grb2 SH2 domain was then determined by examining its ability to compete with the FAM-labeled ligand for binding to the Grb2 SH2 domain by fluorescence polarization (FP). […] Next, BH23 was labeled with NF at the Asn side chain through a miniPEG-Lys linker and its cytosolic entry efficiency was quantitated by treating HeLa cells with 5 μM of the labeled peptide for 2 h before flow cytometry analysis. […] BH23 was also similarly labeled at the Asn side chain with FAM and its entry into HeLa cells was examined by live-cell confocal microscopy. […] Two control peptides (BH24 and BH25) were also prepared for cellular assays. BH24 and BH25 are structurally similar to BH23, except that BH24 contained a Tyr instead of the pY residue (FIG. 11), whereas in BH25 the two hydrophobic residues critical for cellular uptake (Nal-arg) were replaced with Ala-ala (FIG. 12).
BHT1 and BHT2 were labeled with naphthofluorescein (NF) and their cytosolic uptake into HeLa cells was determined by flow cytometry (Table 10).
Additional cell penetrating compounds were prepared and tested for cytosolic delivery. In these compounds there was no beta-hairpin turn creating moiety.

[1] = HeLa cells, 5 μM NF-labeled peptide, 2 h
[2] = HeLa cells, 2 h, DMEM with 10% FBS and 1% ABS, relative to CPP9 (100%)

With “275 (cyclo(F[dF]F[dR]R[dR]Q); SMILES N=C(N)NCCC[C@@H]1NC(=O)[C@@H](CCCNC(=N)N)NC(=O)[C@H](Cc2ccccc2)NC(=O)[C@@H](Cc2ccccc2)NC(=O)[C@H](Cc2ccccc2)NC(=O)[C@H](CCC(N)=O)NC(=O)[C@@H](CCCNC(=N)N)NC1=O) [Peptide 275]” the “Cellular Uptake (MFI^NF, %), cytosolic delivery efficiency of CPPs without beta-hairpin moiety” value was 236 ± 26%.
In the case of “276 (cyclo([dF]F[d2Nal][dR]R[dR]Q); also: further D-residues, places not given here) [Peptide 276]”, the “Cellular Uptake (MFI^NF, %), cytosolic delivery efficiency of CPPs without beta-hairpin moiety” value is reported as 250 ± 37%.
In the case of “277 (cyclo([dF][2Nal][dF][dR]R[dR]Q)) [Peptide 277]”, the “Cellular Uptake (MFI^NF, %), cytosolic delivery efficiency of CPPs without beta-hairpin moiety” value is reported as 267 ± 62%.
“278 (cyclo([d2Nal]F[dF][dR]R[dR]Q); also: further D-residues, places not given here) [Peptide 278]” was tested, and the “Cellular Uptake (MFI^NF, %), cytosolic delivery efficiency of CPPs without beta-hairpin moiety” value was 50 ± 9%.
With “279 (cyclo(F[2Nal][dR]R[dR]Q)) [Peptide 279]” the “Cellular Uptake (MFI^NF, %), cytosolic delivery efficiency of CPPs without beta-hairpin moiety” value was 76%.
“280 (cyclo([dF][2Nal][dR]R[dR]Q)) [Peptide 280]” was tested, and the “Cellular Uptake (MFI^NF, %), cytosolic delivery efficiency of CPPs without beta-hairpin moiety” value was 214%.
With “281 (Ac-K[dF]FR[dR]R[dR]D; lactam 1-8 (inferred); not fully specified; printed as Ac-(Lys-fFRrRrD)) [Peptide 281]” the “Cellular Uptake (MFI^NF, %), cytosolic delivery efficiency of CPPs without beta-hairpin moiety” value was 129 ± 9%.
“282 (Ac-[Dap][dF]FR[dR]R[dR]D; lactam 1-8 (inferred); not fully specified; printed as Ac-(Dap-fFRrRrD)) [Peptide 282]” was tested, and the “Cellular Uptake (MFI^NF, %), cytosolic delivery efficiency of CPPs without beta-hairpin moiety” value was 126 ± 33%.
In the case of “283 (CWWRRRRC; disulfide 1-8) [Peptide 283]”, the “Cellular Uptake (MFI^NF, %), cytosolic delivery efficiency of CPPs without beta-hairpin moiety” value is reported as 51%.
With “284 (CWWWRRRRC; disulfide 1-9) [Peptide 284]” the “Cellular Uptake (MFI^NF, %), cytosolic delivery efficiency of CPPs without beta-hairpin moiety” value was 67%.
“285 (CFWRRRRC; disulfide 1-8) [Peptide 285]” was tested, and the “Cellular Uptake (MFI^NF, %), cytosolic delivery efficiency of CPPs without beta-hairpin moiety” value was 49%.
With “286 (CWWWRRRC; disulfide 1-8) [Peptide 286]” the “Cellular Uptake (MFI^NF, %), cytosolic delivery efficiency of CPPs without beta-hairpin moiety” value was 135%.
With “cyclo(A-A-F-R-R-p-P-R-R-Φ-A-A-A-Q)-miniPEG-K(NF) (cyclo(AAFRR[dP]PRR[2Nal]AAAQ); not fully specified (residue 14); printed as cyclo(A-A-F-R-R-p-P-R-R-Φ-A-A-A-Q)-miniPEG-K(NF)) [BH2]” the “Cellular Uptake (MFINF, %)” value [1] was 24 ± 1%.
In the case of “cyclo(A-A-F-Φ-F-p-P-R-R-R-A-A-A-Q)-miniPEG-K(NF) (cyclo(AAF[2Nal]F[dP]PRRRAAAQ); not fully specified (residue 14); printed as cyclo(A-A-F-Φ-F-p-P-R-R-R-A-A-A-Q)-miniPEG-K(NF)) [BH3]”, the “Cellular Uptake (MFINF, %)” value [1] is reported as 30 ± 6%.
With “cyclo(A-A-F-Φ-R-p-P-R-R-F-A-A-A-Q)-miniPEG-K(NF) (cyclo(AAF[2Nal]R[dP]PRRFAAAQ); not fully specified (residue 14); printed as cyclo(A-A-F-Φ-R-p-P-R-R-F-A-A-A-Q)-miniPEG-K(NF)) [BH4]” the “Cellular Uptake (MFINF, %)” value [1] was 73 ± 6% and the “Cellular entry / delivery efficiency (in words)” value (HeLa cells) was “taken up most efficiently”.
For “cyclo(A-A-F-Φ-R-p-P-R-R-R-A-A-A-Q)-miniPEG-K(NF) (cyclo(AAF[2Nal]R[dP]PRRRAAAQ); not fully specified (residue 14); printed as cyclo(A-A-F-Φ-R-p-P-R-R-R-A-A-A-Q)-miniPEG-K(NF)) [BH1]”, the “Cellular Uptake (MFINF, %)” value [1] was 66 ± 12%.
For “cyclo(A-A-F-Φ-R-p-P-R-r-F-A-A-A-Q)-miniPEG-K(NF) (cyclo(AAF[2Nal]R[dP]PR[dR]FAAAQ); not fully specified (residue 14); printed as cyclo(A-A-F-Φ-R-p-P-R-r-F-A-A-A-Q)-miniPEG-K(NF)) [BH7]”, the “Cellular Uptake (MFINF, %)” value [1] was 363 ± 213% and the “Improvement of cytosolic entry efficiency relative to BH4” value (HeLa cells) was 5 fold.
For “cyclo(A-A-F-Φ-R-p-P-r-R-F-A-A-A-Q)-miniPEG-K(NF) (cyclo(AAF[2Nal]R[dP]P[dR]RFAAAQ); not fully specified (residue 14); printed as cyclo(A-A-F-Φ-R-p-P-r-R-F-A-A-A-Q)-miniPEG-K(NF)) [BH5]”, the “Cellular Uptake (MFINF, %)” value [1] was 102 ± 45% and the “Improvement of cytosolic entry efficiency relative to BH4” value (HeLa cells) was “only minor effect”.
In the case of “cyclo(A-A-F-Φ-r-p-P-R-R-F-A-A-A-Q)-miniPEG-K(NF) (cyclo(AAF[2Nal][dR][dP]PRRFAAAQ); not fully specified (residue 14); printed as cyclo(A-A-F-Φ-r-p-P-R-R-F-A-A-A-Q)-miniPEG-K(NF)) [BH6]”, the “Cellular Uptake (MFINF, %)” value [1] is reported as 431 ± 169% and the “Improvement of cytosolic entry efficiency relative to BH4” value (HeLa cells) is reported as 6 fold.
With “cyclo(A-A-F-φ-R-p-P-R-R-F-A-A-A-Q)-miniPEG-K(NF) (cyclo(AAF[d2Nal]R[dP]PRRFAAAQ); not fully specified (residue 14); printed as cyclo(A-A-F-φ-R-p-P-R-R-F-A-A-A-Q)-miniPEG-K(NF)) [BH8]” the “Cellular Uptake (MFINF, %)” value [1] was 235% and the “Improvement of cytosolic entry efficiency relative to BH4” value (HeLa cells) was 3 fold.
For “cyclo(A-E-T-G-E-F-L-F-Φ-r-p-P-R-R-F-L-Q)-miniPEG-K(NF) (cyclo(AETGEFLF[2Nal][dR][dP]PRRFLQ); not fully specified (residue 17); printed as cyclo(A-E-T-G-E-F-L-F-Φ-r-p-P-R-R-F-L-Q)-miniPEG-K(NF)) [BH12]”, the “Cytosolic entry efficiency, fold higher than CPP1” value (HeLa cells) was 5.8 fold and the “Cellular Uptake (MFINF, %)” value [1] was 575 ± 239%.
For cyclo(AFΦPRRFQ)-miniPEG-K(NF) [BHT1], the “Cellular Uptake (MFI^NF, %) of β-hairpin transporters” value [2] was 88% and 88 ± 11%.
With “cyclo(D-A-F-Φ-r-p-P-R-R-F-D-A-D-Q)-miniPEG-K(NF) (cyclo(DAF[2Nal][dR][dP]PRRFDADQ); not fully specified (residue 14); printed as cyclo(D-A-F-Φ-r-p-P-R-R-F-D-A-D-Q)-miniPEG-K(NF)) [BH10]” the “Cellular Uptake (MFINF, %)” value [1] was 44 ± 19% and the “Cellular entry / delivery efficiency (in words)” value (HeLa cells) was “lowest delivery efficiency”.
For “cyclo(FΦrpPRRFAQ)-miniPEG-K(NF) (cyclo(F[2Nal][dR][dP]PRRFAQ); not fully specified (residue 10); printed as cyclo(FΦrpPRRFAQ)-miniPEG-K(NF)) [BHT2]”, the “Cellular Uptake (MFI^NF, %) of β-hairpin transporters” value [2] was 15% and 15 ± 2%.
In the case of “cyclo(R-A-F-Φ-r-p-P-R-R-F-R-A-R-Q)-miniPEG-K(NF) (cyclo(RAF[2Nal][dR][dP]PRRFRARQ); not fully specified (residue 14); printed as cyclo(R-A-F-Φ-r-p-P-R-R-F-R-A-R-Q)-miniPEG-K(NF)) [BH9]”, the “Cellular Uptake (MFINF, %)” value [1] is reported as 104 ± 27%.
In the case of “cyclo(S-A-S-F-Φ-r-p-P-R-R-F-S-A-S-A-Q)-miniPEG-K(NF) (cyclo(SASF[2Nal][dR][dP]PRRFSASAQ); not fully specified (residue 16); printed as cyclo(S-A-S-F-Φ-r-p-P-R-R-F-S-A-S-A-Q)-miniPEG-K(NF)) [BH11]”, the “Cellular Uptake (MFINF, %)” value [1] is reported as 245 ± 16%.
With “cyclo(f-Φ-R-r-R-r-Q)-miniPEG-K(NF) (cyclo([dF][2Nal]R[dR]R[dR]Q); not fully specified (residue 7); printed as cyclo(f-Φ-R-r-R-r-Q)-miniPEG-K(NF)) [CPP9, reference compound]” the “Cellular Uptake (MFI^NF, %), cytosolic entry efficiency” value (HeLa cells, 5 μM NF-labeled peptide, 2 h, DMEM with 10% FBS and 1% ABS, relative to CPP9 (100%)) was 100% and the “Cellular Uptake (MFI^NF, %) of β-hairpin transporters” value [2] was 100%.
“cyclo[F-F-Φ-r-P-p-R-R-F-Q-K(NF)-D-P-E-T-G-E] (cyclo(FF[2Nal][dR]P[dP]RRFQK(NF)DPETGE)) [BH22]” was tested, and the “Cellular Uptake (MFI^NF, %) of Keap1-Nrf2 inhibitors” value (HeLa cells) was 56.9% and the “Cellular entry, fold less efficient than BH20” value (HeLa cells, -L-Pro-D-Pro- instead of -D-Pro-L-Pro-) was ~2 fold.
“cyclo[F-F-Φ-r-p-P-R-R-F-Q-K(NF)-D-P-E-T-G-E] (cyclo(FF[2Nal][dR][dP]PRRFQK(NF)DPETGE)) [BH20]” was tested, and the “Cellular Uptake (MFI^NF, %) of Keap1-Nrf2 inhibitors” value (HeLa cells) was 122.4% and the “Cellular entry / delivery efficiency (in words)” value (HeLa cells) was “less efficiently than BH6 and BH12”.
For “cyclo[F-Φ-r-p-P-R-R-F-K(NF)-D-P-E-T-G-E] (cyclo(F[2Nal][dR][dP]PRRFK(NF)DPETGE)) [BH21]”, the “Cellular Uptake (MFI^NF, %) of Keap1-Nrf2 inhibitors” value (HeLa cells) was 44.6% and the “Cellular entry / delivery efficiency (in words)” value (HeLa cells) was “less efficiently than BH6 and BH12”.
